The values below come from article PMC6243750, “Behavioral Evidence and Olfactory Reception of a Single Alarm Pheromone Component in Halyomorpha halys” (Frontiers in Physiology, 2018).

Molecules are shown by their SMILES.

Experiment [1] deals with T1, H. halys OBP16 (Halyomorpha halys, UniProt A0A1L2JGT7).
T1 sequence (A0A1L2JGT7 23-177): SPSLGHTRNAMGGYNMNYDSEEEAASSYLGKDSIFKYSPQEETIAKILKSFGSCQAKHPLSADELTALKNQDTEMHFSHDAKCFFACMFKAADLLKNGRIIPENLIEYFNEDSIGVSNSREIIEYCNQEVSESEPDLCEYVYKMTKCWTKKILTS
As to the kind of experiment: Fluorescence binding of probe 1-NPN to OBP (Scatchard). To be noted: dissociation constant of OBP16/1-NPN, 2 μM OBP, 50 mM Tris-HCl pH 7.4; read-out: KOBPx/1-NPN. Here is the method:
(§1) Emission fluorescence spectra were measured on a HORIBA FluoromMax®-4 fluorescence spectrophotometer in a right-angle configuration with a 1 cm light path quartz cuvette. The protein was dissolved in 50 mM Tris-HCl buffer, pH 7.4, while all ligands used in binding experiments were used as 1 mM methanol solutions. The excitation wavelength was 337 nm, and the range of the scanning emission wavelength was 380–450 nm.
(§2) The binding constants of OBPs with probe N-phenyl-1-naphtylamine (1-NPN) were determined. We first added 2 ml 50 mM Tris-HCl solution to the cuvette, then added the OBP until the concentration reached 2 μM, measured and recorded the emission spectrum, continued titration, and recorded the highest stable fluorescence intensity. The Scatchard equation was used to record the binding constant of each OPB with 1-NPN.

Experiment [2] concerns the target T2, H. halys OBP4 (Halyomorpha halys, UniProt A0A1L2JGP5).
T2 sequence (A0A1L2JGP5 20-212): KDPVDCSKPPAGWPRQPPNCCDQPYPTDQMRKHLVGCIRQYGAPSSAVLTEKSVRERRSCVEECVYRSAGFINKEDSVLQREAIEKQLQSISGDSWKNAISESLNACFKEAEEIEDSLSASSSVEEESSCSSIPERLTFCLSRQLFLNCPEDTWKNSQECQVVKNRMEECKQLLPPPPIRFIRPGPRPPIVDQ
The experiment is described as above. The settings on record: dissociation constant of OBP4/1-NPN, 2 μM OBP, 50 mM Tris-HCl pH 7.4; read-out: KOBPx/1-NPN. Here is the method: as §1, §2

For experiment [3], the target named is T3, H. halys OBP8 (Halyomorpha halys, UniProt A0A1N7TMV1).
T3 sequence (A0A1N7TMV1 23-143): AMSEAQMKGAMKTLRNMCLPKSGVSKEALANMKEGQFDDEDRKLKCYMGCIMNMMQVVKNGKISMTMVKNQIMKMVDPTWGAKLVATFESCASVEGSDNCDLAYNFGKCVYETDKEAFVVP
Described as above. To be noted: dissociation constant of OBP8/1-NPN, 2 μM OBP, 50 mM Tris-HCl pH 7.4; read-out: KOBPx/1-NPN. Here is the method: as §1, §2

Experiment [4] concerns the target T4, H. halys OBP30 (Halyomorpha halys, UniProt A0A1P8P1N8).
T4 sequence (A0A1P8P1N8 19-136): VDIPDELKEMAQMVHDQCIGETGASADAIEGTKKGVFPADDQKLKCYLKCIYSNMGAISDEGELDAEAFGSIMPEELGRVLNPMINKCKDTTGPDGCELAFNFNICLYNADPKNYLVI
The description is as above. To be noted: dissociation constant of OBP30/1-NPN, 2 μM OBP, 50 mM Tris-HCl pH 7.4; read-out: KOBPx/1-NPN. Here is the method: as §1, §2

The target in experiment [5] is T5, H. halys OBP25 (Halyomorpha halys, UniProt A0A1L2JGT3).
T5 sequence (A0A1L2JGT3 20-148): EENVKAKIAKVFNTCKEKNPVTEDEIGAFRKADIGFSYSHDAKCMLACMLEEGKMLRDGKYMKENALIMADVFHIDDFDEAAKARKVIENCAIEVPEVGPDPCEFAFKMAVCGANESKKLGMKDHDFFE
Described as above. The settings on record: dissociation constant of OBP25/1-NPN, 2 μM OBP, 50 mM Tris-HCl pH 7.4; read-out: KOBPx/1-NPN. Here is the method: as §1, §2

The test system of another experiment is male and female H. halys. Also noted: method as in Zhong et al., 2017. The settings on record: ref Zhong et al., 2017; cited from earlier work.
In the next experiment the test system is H. halys adults. Briefly: Grouped dispersal (repellency) test. It counts as in vivo, Halyomorpha halys. The settings on record: 10 μg, 60 s. Here is the method:
A group test was performed first to assess the repellency of (E)-2-decenal to H. halys adults. In total, 10–20 adults were collected and moved into a plastic rearing box for 1 h to let the adults aggregate and rest before the test. A filter paper loaded with 10 μg (E)-2-decenal was then put into a syringe, and the volatile was released into the air at a distance of 1 cm from the aggregated H. halys adults. The test lasted for 60 s, and the number of dispersed H. halys were counted and recorded. n-Hexane was used as the control following the same protocol. In total, 10 replicates were performed for each treatment.

A further experiment concerns entomopathogenic fungi. Further details: method as in Weber et al., 2017b. To be noted: ref Weber et al., 2017b; cited from earlier work.
The subject of another experiment is adult N. viridula. Further details: method as in Lockwood and Story, 1987. The settings on record: ref Lockwood and Story, 1987; cited from earlier work.
In experiment [6] the test system is H. halys adults and 1st to 5th instar nymphs. Briefly: Route test with individual stink bugs on circular track. It counts as in vivo, Halyomorpha halys. Here is the method:
To identify the alarm pheromone activity in each developmental stage of H. halys (female and male adults, and 1st to 5th instar nymphs), we performed a behavioral test (Noge et al., [2015]) using a gradient of (E)-2-decenal solutions (10 μg/μl, 1 μg/μl, 100 ng/μl, 10 ng/μl, and 1 ng/μl) for the nymphs and the last four doses for both genders of adults. A circular track was made by joining the ends of a silicone tube (100 cm long, 1.2 cm inner diameter), and the track was placed on a tripod stand in the behavioral testing laboratory (25°C ± 1°C, relative humidity = 50% ± 10%). An individual H. halys was placed gently on the track and left for 5 min until it was motionless. Different 10-μl concentrations of (E)-2-decenal were loaded onto a filter paper disk (2 cm diameter), and the disk was then placed 2 mm from the stink bug's antenna. The time taken for the nymph or adult stink bug to change direction and the distance it moved away from the starting point within 15 s were observed and recorded. […] Every developmental stage of H. halys for each chemical treatment was tested 15 times.

Another experiment has as its system H. halys antennae. As to the kind of experiment: EAG recordings on excised antennae. To be noted: 10 μg dose, all developmental stages, versus n-hexane control. Further details: species or system Halyomorpha halys. Here is the method:
EAG recordings were used to identify electrophysiological activities of H. halys at each developmental stage (female and male adults, and nymphal larvae). Each antenna of the brown marmorated stink bug was prepared following the standard procedures of cutting its tip and base and immediately mounting the excised antenna between two glass capillary Ag/AgCl electrodes filled with Kaissling saline (Tang et al., [2016]). The electrode at the distal end of the antenna was connected through an interface box to a signal acquisition interface board (IDAD; Syntech, Netherlands).
n-Hexane was used as the control, and 1 μg/μl (E)-2-decenal was used as the test solution. The measure dose was 10 μg, and the order of antennal exposure was air, n-hexane, and (E)-2-decenal. In total, 10 replicates were used. The direct voltage was 2 mv, the continuous flow velocity was 150 ml/min, the stimulated flow velocity was 20 ml/min, the stimulation time was 0.1 s, and the stimulus intervals were 10 s.
The following equation was used to calculate the EAG recording result:
Relative response value = sample response value − control response value.

The target of experiment [7] is T1, H. halys OBP16. As to the kind of experiment: Competitive fluorescence-binding assay with 1-NPN as probe. Here is the method: as §1
(§3) The binding abilities of the OBPs and (E)-2-decenal were later investigated. Fluorescence intensities were automatically subtracted from blank fluorescence values when harvested from instrument. The excitation wavelength was set at 337 nm, and the range of the scanning emission wavelength was 380–450 nm. First, 2 mL 50-mM Tris-HCl solution was added, and then the OBP and 1-NPN were added until the concentration was 2 μM. The highest stable fluorescence intensity was record. Then, we added the (E)-2-decenal, which was dissolved in methanol in the cuvette, and continued the titration from 2 μM until the fluorescence intensity was stable. The highest stable fluorescence intensity was recorded. Each OBP was tested three times. The dissociation constant was calculated based on the formula Kd = [IC50]/(1 + [1-NPN]/K1−NPN), where IC50 represents the (E)-2-decenal concentration when the fluorescence intensity of [OBP/1-NPN] declined to the half of the highest value, [1-NPN] represents the dissociative concentration of 1-NPN, and K1−NPN represents the dissociation constant of OBP/1-NPN.

The target in experiment [8] is T2, H. halys OBP4. Described as above. Here is the method:
as §1, §3

The target of experiment [9] is T3, H. halys OBP8. The description is as above. Here is the method: as §1, §3
Experiment [10] deals with T4, H. halys OBP30. The description is as above. Here is the method:
as §1, §3

In experiment [11] the target is T5, H. halys OBP25. The experiment is described as above. Here is the method: as §1, §3
For the next experiment, the system named is H. halys. Further details: method as in Zhang et al., 2014a. The settings on record: combined with tridecane; ref Zhang et al., 2014a; cited from earlier work.
The mark [12] stands for this setting: Kd = [IC50]/(1 + [1-NPN]/K1-NPN), OBP and 1-NPN 2 μM.
The mark [13] stands for this setting: concentration at which [OBP/1-NPN] fluorescence declined to half.

In the case of `c1ccc(Nc2cccc3ccccc23)cc1` [1-NPN, N-phenyl-1-naphtylamine], the Kd on H. halys OBP16 [1] is 1.13 ± 0.08 µM; at H. halys OBP4 [2] it was 9.18 ± 2.67 µM; on H. halys OBP8 [3], 2.74 ± 0.8 µM; on H. halys OBP30 [4] it was 2.79 ± 0.74 µM; on H. halys OBP25 [5], 0.51 ± 0.3 µM.

For `CCCCCCC/C=C/C=O` [(E)-2-decenal], in the experiment with male and female H. halys, the “repellence in Y-tube assays” value is recorded as “strongly repel”. In addition, the Repellent rates in the experiment on H. halys adults was 84.1 ± 5.14%. Moreover, the “effect on entomopathogenic fungi” value with entomopathogenic fungi was “fungistatic effect and inhibits spore germination”. Further, the alarm effects entry with adult N. viridula is on record as “no alarm effects”. Moreover, the “repellence compared with n-hexane control” value in experiment [6] (1 μg and 10 μg, all stages of H. halys) was “significantly repelled”. Moreover, in experiment [6] (3rd to 5th instar nymphs, all tested doses, within 15 s), the “moving distances compared with n-hexane control” value is listed as “significantly longer moving distances”. For the same compound, in experiment [6] (5th instar nymphs, response time), the “repellent effect starting at a tested dose” value stood at 10 ng. For the same compound, the EAG responses entry in the experiment on H. halys antennae is listed as “significantly greater electrophysiological responses compared with the n-hexane control, except for the 1st instar nymphs”. Besides, the Kd on H. halys OBP16 [7] (setting [12]) worked out at 6.16 ± 0.42 µM; on H. halys OBP4 [8] (OBP4, Kd = [IC50]/(1 + [1-NPN]/K1-NPN), OBP and 1-NPN 2 μM), 26 ± 3.01 µM; at H. halys OBP8 [9] (setting [12]) it was 8.61 ± 0.24 µM; at H. halys OBP30 [10] (setting [12]) it was 10.5 ± 0.64 µM; on H. halys OBP25 [11] (setting [12]), 2.21 ± 0.064 µM. The half-inhibitory concentration (IC50) on H. halys OBP16 [7] (setting [13]) was 13.7 ± 0.94 µM; at H. halys OBP4 [8] (OBP4, concentration at which [OBP/1-NPN] fluorescence declined to half) it was 31.3 ± 3.61 µM; at H. halys OBP8 [9] (setting [13]), 13.7 ± 0.38 µM; at H. halys OBP30 [10] (setting [13]), 16.7 ± 1.01 µM; on H. halys OBP25 [11] (setting [13]), 7.18 ± 0.21 µM. Further, at H. halys OBP4 [8] (OBP4, in words), the “binding activity to (E)-2-decenal” value was “did not show a good binding activity”. In addition, in the experiment on H. halys, the feeding deterrence result is listed as “strong feeding deterrent”.
